In PMC9116478, “Population Pharmacokinetics of Caspofungin and Dose Simulations in Heart Transplant Recipients” (Antimicrobial Agents and Chemotherapy, 2022):
Like-named read-outs stand apart in the source and are kept apart here.

Experiments:
[1] = Population pharmacokinetics of caspofungin in HTx and non-HTx patients (plasma LC-MS/MS, NONMEM two-compartment model); assay type: in vivo, human (patients); settings: for clearance / Cmax: human, iv; for Cmax: read-out: Cmax (peak plasma concentration)
Text: This was a prospective, single-center, open-label study. We recruited patients who underwent HTx at the Guangdong Provincial People’s Hospital in the SICU from July 2019 to July 2021. The inclusion criteria were: (i) patients aged 18 years or older who received caspofungin in SICU and accepted cardiac surgery and (ii) acceptability of multiple blood sampling. Patients who were allergic to caspofungin, those receiving drugs that can affect the PK of caspofungin, and those who could not receive multiple blood sampling were excluded. Patients who underwent HTx in SICU were recruited as the HTx group. Patients who never received HTx but underwent cardiac surgery and being in SICU were recruited in the control group. This study was approved by the Ethics Committee of Guangdong Provincial People’s Hospital, Guangdong Academy of Medical Sciences (approval number GDREC2018355(R1)H).
Caspofungin (Laboratoires Merck Sharp & Dohme Chibret, France) was administered by 1-h intravenous infusion at a dose of 50 mg every 24 h after a loading dose of 70 mg. Blood samples were collected before administration and at 1, 2, 6, 10, 16, and 24 h after the administration of caspofungin for at least 3 days. Plasma was separated by centrifugation of blood samples at 2,000 × g for 10 min at 4°C and stored at −80°C before analysis.
All plasma samples were detected by the liquid chromatography-tandem mass spectrometry (LC-MS/MS) method. First, 200 μL of acetonitrile-dissolved extraction working solution was added to 100 μL of plasma sample and mixed by vortexing at 3,000 rpm for 1 min. After centrifugation at 14,000 rpm for 15 min at 4°C, 2 μL supernatant was injected for LC-MS/MS analysis. The chromatographic column was an Agilent poroshell 120 SB-C18 (2.7 μm, 3.0 × 50 mm) column. The mobile phase was acetonitrile with 0.1% formic acid (A) and water with 0.1% formic acid (B). In the initial 0 to 0.5 min, the mobile phase was composed of 95% B and 5% A, and then within 0.5 to 1.5 min, the mobile phase B decreased linearly from 95% to 5% and remained unchanged for 1.5 to 2 min. Finally, it returned to 95% B and 5% A, and the entire analysis time was 5 min. The flow rate was 0.5 mL/min, and the column temperature was 35°C. A positive ion mode multiple reaction monitoring detection mode through electrospray ionization was performed with the transitions of m/z 547.3 → 538.2 for caspofungin and m/z 549.3 → 540.3 for caspofungin-d4 (IS). The linear range of the method was 0.4 to 25 mg/liter. The intraday and interday precision were 1.56 to 3.32% and 3.40 to 7.48%, respectively, and the deviation of accuracy was 0.96 to 2.21%.
We analyzed population PK data using the nonlinear mixed-effects modeling software NONMEM 7.3 (version 7.3, ICON plc, NY, USA). We employed one-, two-, and three-compartment pharmacokinetic models to fit the data and selected the most suitable basic structural model. Further, all potential covariates for caspofungin PK parameters reported in previous studies were analyzed. The covariates included demographic characteristics, renal function indices, liver function indices, HTx status, ECMO, and CRRT. Different covariate types have different variable models. Discrete covariates (such as sex) were modeled as follows. (1) Cij=Ctv,j×θjcov×enj
For continuous covariates (such as weight), an exponential model was selected with average covariates values and an adjusting factor. (2) Cij=Ctv,j×(cov/covave)^θj×e^ηj
In the above equations, Cij is the individual value. Ctv,j is the population typical value. cov in equation 1 is expressed as 0 or 1, cov in equation 2 is the value of the covariate, and θj is an impact factor. covave is the average value of a continuous covariate. Interindividual variability is shown as ηj, which is normally distributed with mean 0 and variance ω^2. Residual variability was modeled using a mixture of additive and proportional error models. […]

[2] = under normal plasma protein levels; cited from earlier work
Text: Kurland et al. ([26]) found a negative correlation between hypoalbuminemia and elimination rate constant. […] They also identified total bilirubin (TBIL) as another covariate. ALB and TBIL levels were collectively found to affect CL of caspofungin.

Candida albicans = settings: pharmacodynamic target used for PTA; cited from earlier work
Text: (§1) This study used Matlab software for simulations. The simulated data were based on the virtual patients with different ALB levels (25, 30, 37, 45, and 50 g/liter) at various dosage regimens (50-, 70-, 100-, 150-, and 200-mg maintenance dose). The median ALB level of the research population was 37 g/liter. We generated 1,000 virtual patients whose pharmacokinetic parameters were randomly assigned according to the distributions with the median of CL, θALB-CL, and CL interindividual variations and their calculated standard deviations from bootstraps (Table 2) for the simulations. AUC was calculate ...

Candida glabrata = settings: pharmacodynamic target used for PTA; cited from earlier work
Text: as §1

Candida parapsilosis = settings: pharmacodynamic target used for PTA; cited from earlier work
Text: as §1

[3] = Control group (n = 31), median (range)
[4] = Heart transplantation group (n = 27), median (range)
[5] = population estimate, 58 patients, 414 plasma concentrations, 50 mg q24h i.v. after 70 mg loading dose, two-compartment model

CC[C@H](C)C[C@H](C)CCCCCCCCC(=O)N[C@H]1C[C@@H](O)[C@@H](NCCN)NC(=O)[C@@H]2[C@@H](O)CCN2C(=O)[C@H]([C@H](O)CCN)NC(=O)[C@H]([C@H](O)[C@@H](O)c2ccc(O)cc2)NC(=O)[C@@H]2C[C@@H](O)CN2C(=O)[C@H]([C@@H](C)O)NC1=O [caspofungin]
Vc [1, 3]: 5.27 L
Vp [1, 3]: 6.31 L
Vc [1, 4]: 3.14 L
Vp [1, 4]: 4.98 L
Q ([1]; control group, median): 2.85 L/h
clearance ([1]; population estimate, 58 patients (27 HTx, 31 non-HTx), 414 plasma concentrations, 50 mg q24h 1-h i.v. infusion after 70 mg loading dose, LC-MS/MS, two-compartment model, read-out: CL (clearance), final model estimate (converted)): 6.42 mL/min
clearance ([1]; plasma, 50 mg, Control group (n = 31), median (range), read-out: CL (converted)): 7.5 mL/min
Cmax ([1]; plasma, 50 mg, Control group, non-HTx critically ill patients (n = 31), median (range), 50 mg q24h 1-h i.v. infusion after 70 mg loading dose): 7890 ng/mL
Cmax ([1]; plasma, 50 mg, Heart transplantation group (n = 27), median (range), 50 mg q24h 1-h i.v. infusion after 70 mg loading dose): 11700 ng/mL
clearance ([1]; plasma, 50 mg, Heart transplantation group (n = 27), median (range), read-out: CL (converted)): 5.83 mL/min
Q (intercompartmental clearance), final model estimate [1, 5]: 2.85 L/h
Vc (volume of distribution of the central compartment), final model estimate [1, 5]: 4.27 L
Vp (volume of distribution of the peripheral compartment), final model estimate [1, 5]: 6.01 L
protein binding rate [2]: 97%
target AUC/MIC value (Candida albicans): greater than 865
target AUC/MIC value (Candida glabrata): > 450
target AUC/MIC value (Candida parapsilosis): > 1,185
